System: Trypanosoma brucei
Experiment: ALAMARBLUE cell viability / growth assay of T. brucei cells
Format: cell-based
Conditions: for % Inhibition @2 μM / % Inhibition @10 μM / % Inhibition @5 μM / inhibition at 2 µM / inhibition at 5 µM: T. brucei, 72 hours, normalized to DMSO control; for inhibition at 2 µM / inhibition at 5 µM: Trypanosoma brucei
Protocol: To determine cell growth rate, WT and two TbRPA1 RNAi KD strains (KD1 and KD2) were seeded at a density of 1×10^5 cells/ml and cultured with or without tetracycline for the induction of RNAi. Cells were counted every 12 hours for 2 days. To determine the viability of TbRPA1-depleted cells, ALAMARBLUE® assay (Thermo Fisher, an established colorimetric technique that detects metabolically active cells) was used. Cells from each time point were incubated with ALAMARBLUE® dye for 4-6 hours and percentage of live cells was determined by measuring resorufin converted from resazurin by reducing environment of live cells. Synergy H1 microplate reader (BioTek) was used with 560/590 nm (excitation/emission) filter settings and Relative Fluorescence Unit (RFU) values were obtained. The percentage of viable cells were calculated from the RFU values.
The initial assessment of JC-229's inhibitory effect on T. brucei cell growth was performed at 50 μM concentration. Trypanosome cells were seeded at 1×10^3 cells/ml density in 180 μl in a 96-well culture plate in triplicate. These cells were incubated with 50 μM JC-229 for 24, 48, and 72 hours. DMSO was used as a vehicle control at 0.0075%. JC-229-treated culture and control cultures were analyzed with the ALAMARBLUE® dye as described above.
To obtain the EC50 value of JC-229, T. brucei cells were seeded at 1×10^3 cells/ml density in 180 μl in a 96-well culture plate in triplicate. These cells were incubated for 72 hours with increasing concentrations of JC-229, (0.5 μM to 50 μM) and cell viability was determined using the ALAMARBLUE® dye as described above.
Trypanosoma brucei cytotoxicity of JC-229 and analogs were measured using ALAMARBLUE® assay (Rampersad, S. N. Multiple applications of ALAMARBLUE® as an indicator of metabolic function and cellular health in cell viability bioassays. Sensors (Basel) 12, 12347-12360 (2012). Trypanosome cells were seeded at 1×10^3 cells/ml density in 180 μl in a 96-well culture plate in triplicate. These cells were incubated with indicated concentration of JC compounds for 72 hours. DMSO was used as a vehicle control at 0.0075%. JC compound-treated cultures were then incubated with ALAMARBLUE® dye for 4-6 hours and percentage of live cells was determined using Synergy H1 microplate reader (BioTek) with 560/590 nm (excitation/emission) filter settings and Relative Fluorescence Unit (RFU) values were obtained. The percentage of viable cells were calculated from the RFU values by normalizing to DMSO treated control. In one embodiment, the inhibitor is characterized in that it provides at least 50%, at least 80% or at least 90% inhibition at a concentration of 5 μM when tested in accordance with the above conditions.

SMILES | % Inhibition @2 μM | % Inhibition @10 μM | % Inhibition @5 μM | also measured
Cc1ccc(C(=O)Nc2ccc(Cl)c(Cl)c2)cc1S(=O)(=O)NC(CO)(CO)CO [JC-893] | 2% | −5% | – | –
Cc1ccc(C(=O)Nc2ccc(Cl)c(Cl)c2)cc1S(=O)(=O)N1CCCC(NC(=O)OC(C)(C)C)C1 (centres unmarked) [JC-962] | 36% | – | 100% | –
Cc1ccc(C(=O)Nc2ccc(Cl)c(Cl)c2)cc1S(=O)(=O)Nc1cc[nH]n1 [JC-902] | 14% | 56% | – | –
Cc1ccc(C(=O)Nc2ccc(Cl)c(Cl)c2)cc1S(=O)(=O)N1CCC(NS(C)(=O)=O)CC1 [JC-969] | 18% | – | −4% | –
Cc1ccc(S(=O)(=O)Nc2ccc(Cl)c(Cl)c2)cc1C(=O)Nc1ccc(Cl)c(Cl)c1 [JC-858] | 13% | 100% | 86% | –
Cc1ccc(C(=O)Nc2ccc(Cl)c(Cl)c2)cc1S(=O)(=O)NCCNS(=O)(=O)c1ccc(OCc2ccccc2)cc1 [JC-997] | −9% | – | 92% | –
Cc1ccc(C(=O)Nc2ccc(Cl)c(Cl)c2)cc1S(=O)(=O)NCCCCCCO [JC-898] | 6% | 57% | – | –
Cc1ccc(C(=O)NCCO)cc1S(=O)(=O)Nc1ccc(Cl)c(Cl)c1 [JC-864] | −20% | 42% | – | –
Cc1ccc(C(=O)Nc2ccc(Cl)c(Cl)c2)cc1S(=O)(=O)NCCNC(=S)Nc1cccc(C(F)(F)F)c1 [JC-1000] | 21% | – | 58% | –
O=C(Nc1ccc(Cl)c(Cl)c1)c1ccc(Cl)c(S(=O)(=O)Nc2ccc(Cl)c(Cl)c2)c1 [JC-853] | −17% | 81% | – | –
Cc1ccc(C(=O)Nc2ccc(Cl)c(Cl)c2)cc1S(=O)(=O)N1CCC(NC(=O)OC(C)(C)C)CC1 [JC-896] | 17% | 92% | 69.4% | –
CCOc1ccc2cc(C3CC(c4ccc(Br)cc4)=NN3C(=O)CCC(=O)O)c(Cl)nc2c1 (centres unmarked) [TDRL-505, reference compound] | – | – | – | effect on T. brucei proliferation (even at 60 μM): no effect
Cc1ccc(C(=O)Nc2ccc(Cl)c(Cl)c2)cc1S(=O)(=O)NCCNC(=S)Nc1ccc(C(F)(F)F)cc1 [JC-1003] | 0% | – | 80% | –
Cc1ccc(C(=O)Nc2ccc(Cl)c(Cl)c2)cc1S(=O)(=O)NCCO [JC-872] | −13% | 21% | – | –
COc1ccc(NC(=S)NC2CCCN(S(=O)(=O)c3cc(C(=O)Nc4ccc(Cl)c(Cl)c4)ccc3C)C2)cc1 (centres unmarked) [JC-1004] | 32% | – | 94% | –
CC(=O)c1ccc(NS(=O)(=O)c2cc(C(=O)Nc3ccc(Cl)c(Cl)c3)ccc2C)cc1 [JC-909] | 15% | 17% | – | –
Cc1ccc(C(=O)Nc2ccc(Cl)c(Cl)c2)cc1S(=O)(=O)N1CCCC(NC(=O)OC(C)(C)C)C1 (centres unmarked) [JC-928] | 15% | 100% | 99.6% | –
Cc1ccc(C(=O)Nc2ccc(Cl)c(Cl)c2)cc1S(=O)(=O)NCc1ccccc1 [JC-857] | −5% | 14% | – | –
Cc1ccc(C(=O)Nc2ccc(Cl)c(Cl)c2)cc1S(=O)(=O)N1CCCC(NC(=O)Cc2ccccc2)C1 (centres unmarked) [JC-930] | 4% | 100% | 99.7% | –
Cc1ccc(C(=O)Nc2ccc(Cl)c(Cl)c2)cc1S(=O)(=O)N1CCCC(NC(=S)Nc2ccccc2F)C1 (centres unmarked) [JC-1006] | 17% | – | 101% | –
Cc1ccc(C(=O)Nc2ccc(Cl)c(Cl)c2)cc1S(=O)(=O)Nc1cnc2ccccc2c1 [JC-914] | −7% | −3% | – | –

SMILES | % Inhibition @2 μM | % Inhibition @10 μM | % Inhibition @5 μM | also measured
Cc1ccc(C(=O)Nc2ccc(Cl)c(Cl)c2)cc1S(=O)(=O)NCCN(C)C [JC-871] | −3% | 79% | – | –
Cc1ccc(C(=O)Nc2cc(C(F)(F)F)n[nH]2)cc1S(=O)(=O)Nc1ccc(Cl)c(Cl)c1 [JC-866] | −15% | 23% | – | –
Cc1ccc(C(=O)Nc2ccc(Cl)c(Cl)c2)cc1S(=O)(=O)N1CCC(NC(=S)Nc2ccc(C(F)(F)F)cc2)CC1 [JC-1020] | 100% | – | 100% | –
Cc1ccc(C(=O)Nc2ccc(Cl)c(Cl)c2)cc1S(=O)(=O)N1CCC(NS(=O)(=O)c2cccc(F)c2)CC1 [JC-1012] | 36% | – | 97% | –
Cc1ccc(C(=O)Nc2ccc(Cl)c(Cl)c2)cc1S(=O)(=O)NCCNS(=O)(=O)c1cccc(Br)c1 [JC-994] | −17% | – | 61% | –
Cc1ccc(C(=O)Nc2ccc(Cl)c(Cl)c2)cc1S(=O)(=O)NCCNS(=O)(=O)c1ccc(Br)cc1C(F)(F)F [JC-995] | −34% | – | 93% | –
Cc1ccc(C(=O)Nc2ccc(Cl)c(Cl)c2)cc1S(=O)(=O)Nc1cccc([N+](=O)[O-])c1N [JC-899] | 3% | 14% | – | –
Cc1ccc(C(=O)Nc2ccc(Cl)c(Cl)c2)cc1S(=O)(=O)Nc1nc2ccccc2[nH]1 [JC-873] | −4% | 100% | 1% | –
Cc1ccc(C(=O)N[C@@H](Cc2ccccc2)C(N)=O)cc1S(=O)(=O)Nc1ccc(Cl)c(Cl)c1 [JC-862] | −19% | 27% | – | –
Cc1ccc(C(=O)Nc2ccc(Cl)c(Cl)c2)cc1S(=O)(=O)N1CCC[C@@H](N)C1 [JC-963] | – | – | – | inhibition at 2 µM: 96%; inhibition at 5 µM: 100%
Cc1ccc(C(=O)N[C@H](Cc2ccccc2)C(N)=O)cc1S(=O)(=O)Nc1ccc(Cl)c(Cl)c1 [JC-861] | 5% | 4% | – | –
Cc1ccc(C(=O)Nc2ccc(Cl)c(Cl)c2)cc1S(=O)(=O)NCc1nc2c(F)c(F)ccc2[nH]1.O=C(O)C(F)(F)F [JC-903] | 11% | 37% | – | –
Cc1ccc(C(=O)Nc2ccc(Cl)c(Cl)c2)cc1S(=O)(=O)N1CCCC(NC(=S)Nc2ccc(Cl)c(Cl)c2)C1 (centres unmarked) [JC-1007] | 100% | – | 101% | –
Cc1ccc(C(=O)Nc2ccc(Cl)c(Cl)c2)cc1S(=O)(=O)N1CCC(NC(=S)Nc2ccc(F)cc2)CC1 [JC-970] | – | – | – | inhibition at 2 µM: 100%; inhibition at 5 µM: 100%
Cc1ccc(C(=O)Nc2ccc(Cl)c(Cl)c2)cc1S(=O)(=O)NCCCCO [JC-895] | 10% | 45% | – | –
Cc1ccc(C(=O)NNc2ccccc2)cc1S(=O)(=O)Nc1ccc(Cl)c(Cl)c1 [JC-860] | 5% | 24% | – | –
Cc1ccc(C(=O)Nc2ccc(Cl)c(Cl)c2)cc1S(=O)(=O)N1CCC(NC(=S)Nc2ccccc2F)CC1 [JC-1018] | 100% | – | 100% | –
Cc1ccc(C(=O)NCc2ccccc2)cc1S(=O)(=O)Nc1ccc(Cl)c(Cl)c1 [JC-856] | −7% | 22% | – | –
Cc1ccc(C(=O)Nc2ccc(Cl)c(Cl)c2)cc1S(=O)(=O)NCCNC(=O)c1ccccc1 [JC-920] | −5% | −9% | – | –
Cc1ccc(C(=O)Nc2ccc(Cl)c(Cl)c2)cc1S(=O)(=O)NCCCc1ccccc1 [JC-908] | 18% | 62% | – | –

Source: US20250188033A1, “INHIBITOR OF REPLICATION PROTEIN A1 OF TRYPANOSOMA BRUCEI AND METHOD OF USE THEREOF” (Research Foundation of the City University of New York, published 2025)
